Measured values as given in patent US20240116985A1, “STAPLED PEPTIDES AND METHODS THEREOF” (priority 2020, published 2024).
Read-outs that look alike come from different tables or passages of the source.

How the values were obtained:
[1] = target: T1, beta-catenin/TCF4 engagement (Homo sapiens, UniProt P35222); assay: Nano-BRET target engagement assay (B-cat-Halo & TCF4-Luc in HEK293 cells); format: cell-based; conditions: read-out: NanoBRET Abs IC50
T1 construct: expressed in transfected cells; host or cells: HEK293
T1 sequence (P35222 1-781): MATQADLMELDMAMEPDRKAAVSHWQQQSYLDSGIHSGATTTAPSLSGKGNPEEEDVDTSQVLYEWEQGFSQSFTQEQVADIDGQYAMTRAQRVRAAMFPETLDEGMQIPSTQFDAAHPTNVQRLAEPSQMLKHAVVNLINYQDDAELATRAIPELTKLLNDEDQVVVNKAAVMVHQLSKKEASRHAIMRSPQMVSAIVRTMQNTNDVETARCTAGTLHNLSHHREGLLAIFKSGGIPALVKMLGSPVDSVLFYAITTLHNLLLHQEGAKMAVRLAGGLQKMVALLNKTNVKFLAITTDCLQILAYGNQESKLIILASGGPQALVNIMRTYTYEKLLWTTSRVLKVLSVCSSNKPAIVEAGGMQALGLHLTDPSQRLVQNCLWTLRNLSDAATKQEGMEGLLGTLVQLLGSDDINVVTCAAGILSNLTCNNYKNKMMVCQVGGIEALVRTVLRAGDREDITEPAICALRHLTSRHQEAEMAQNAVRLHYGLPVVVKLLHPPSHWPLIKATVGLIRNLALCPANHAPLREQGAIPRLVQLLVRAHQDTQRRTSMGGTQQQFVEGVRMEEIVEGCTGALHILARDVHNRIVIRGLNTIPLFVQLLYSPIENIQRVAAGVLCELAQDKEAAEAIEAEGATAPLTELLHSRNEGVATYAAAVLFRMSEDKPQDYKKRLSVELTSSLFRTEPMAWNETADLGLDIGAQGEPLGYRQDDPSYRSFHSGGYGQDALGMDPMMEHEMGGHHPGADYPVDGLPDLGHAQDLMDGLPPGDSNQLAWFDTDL

[2] = target: T2, full-length beta-Catenin (Uniprot ID P35222) (Homo sapiens, UniProt P35222); assay: Fluorescence polarization IC50 (beta-catenin / 5FAM-TCF4 10-53 competition); format: binding; conditions: fluorescence polarization; read-out: beta-Catenin FP IC50
T2 construct: 10 nM full-length beta-Catenin (Uniprot ID P35222)
T2 sequence (P35222 1-781): T1 sequence (P35222 1-781)

IC50 [1] | IC50 [2] | IC50 ([1]; absolute IC50) | Structure (SMILES)
24000 nM | 42 nM |  | CC(=O)N[C@]1(C)CCCCCCCCC2(CCCCCCCCOC(=O)N3CC[C@@](C(=O)N[C@@H](Cc4ccccc4C(F)(F)F)C(=O)N[C@@H](Cc4csc5ccccc45)C(=O)N[C@@H](CCC(N)=O)C(N)=O)(C3)NC(=O)[C@H](CC(C)C)NC(=O)[C@H](Cc3ccccc3)NC(=O)[C@H](C)NC(=O)[C@H](C)NC(=O)[C@H](Cc3cccc(C(=O)O)c3)NC(=O)[C@H](CC(=O)O)NC2=O)NC(=O)[C@H](CC(C)(C)C)NC(=O)[C@H](CC(=O)O)NC1=O (stereo partly drawn) [I-2571, Ac-R5-Asp-Npg-B5-Asp-3COOHF-Ala-Ala-Phe-Leu-PyrS2-2F3MeF-BztA-Gln-NH2]
5000 nM | 43 nM |  | CC(=O)N1CCC[C@]12CC=CCCCC1(CCCC=CCCCOC(=O)N3CC[C@@](C(=O)N[C@@H](Cc4ccccc4C(F)(F)F)C(=O)N[C@@H](Cc4csc5ccccc45)C(=O)N[C@H](CCC(N)=O)C(N)=O)(C3)NC(=O)[C@H](Cc3ccccc3)NC(=O)[C@H](Cc3ccccc3)NC(=O)[C@H](C)NC(=O)[C@H](C)NC(=O)[C@H](Cc3cccc(C(=O)O)c3)NC(=O)[C@H](CC(=O)O)NC1=O)NC(=O)[C@H](CC(C)(C)C)NC(=O)[C@H](CC(=O)O)NC2=O (stereo partly drawn) [I-2093, Ac-PL3-Asp-Npg-B5-Asp-3COOHF-Ala-Ala-Phe-Phe-PyrS2-2F3MeF-BztA-dGln-NH2]
 | 187 nM | 8300 nM | CC(=O)N1CCC[C@]12CC=CCCCC1(CCCC=CCCCOC(=O)N3CC[C@@](C(=O)N[C@@H](Cc4ccccc4C(F)(F)F)C(=O)N[C@@H](Cc4csc5ccccc45)C(=O)N[C@@H](CCC(N)=O)C(=O)N[C@@H](CC(C)C)C(=O)N[C@H](CC(C)C)C(N)=O)(C3)NC(=O)[C@H](CC(C)C)NC(=O)[C@H](Cc3ccccc3)NC(=O)[C@H](C)NC(=O)[C@H](C)NC(=O)[C@H](Cc3cccc(C(=O)O)c3)NC(=O)[C@H](CC(=O)O)NC1=O)NC(=O)[C@H](CC(C)(C)C)NC(=O)[C@H](CC(=O)O)NC2=O (stereo partly drawn) [I-2396, Ac-PL3-Asp-Npg-B5-Asp-3COOHF-Ala-Ala-Phe-Leu-PyrS2-2F3MeF-BztA-Gln-Leu-dLeu-NH2]
4700 nM | 11 nM |  | CC(=O)N1CCC[C@]12CC=CCCCC1(CCCC=CCCCOC(=O)N3CC[C@@](C(=O)N[C@@H](Cc4ccccc4Cl)C(=O)N[C@@H](Cc4csc5ccccc45)C(=O)N[C@@H](C)C(N)=O)(C3)NC(=O)[C@H](CC(N)=O)NC(=O)[C@H](Cc3ccccc3)NC(=O)[C@H](C)NC(=O)[C@H](C)NC(=O)[C@H](Cc3cccc(C(=O)O)c3)NC(=O)[C@H](CC(=O)O)NC1=O)NC(=O)[C@H](CC(C)(C)C)NC(=O)[C@H](CC(=O)O)NC2=O (stereo partly drawn) [I-2031, Ac-PL3-Asp-Npg-B5-Asp-3COOHF-Ala-Ala-Phe-Asn-PyrS2-2C1F-BztA-Ala-NH2]
 | 22 nM | 18000 nM | CC(=O)N1CCC[C@]12CC=CCCCC1(CCCC=CCCCOC(=O)N3CC[C@@](C(=O)N[C@@H](Cc4ccccc4Cl)C(=O)N[C@@H](Cc4csc5ccccc45)C(=O)N[C@H](C(N)=O)[C@@H](C)O)(C3)NC(=O)[C@H](CC(C)C)NC(=O)[C@H](Cc3ccccc3)NC(=O)[C@H](C)NC(=O)[C@H](C)NC(=O)[C@H](CC(=O)O)NC(=O)[C@H](CC(=O)O)NC1=O)NC(=O)[C@H](CC1CCCCC1)NC(=O)[C@H](CC(=O)O)NC2=O (stereo partly drawn) [I-1139, Ac-PL3-Asp-Cha-B5-Asp-Asp-Ala-Ala-Phe-Leu-PyrS2-2C1F-BztA-Thr-NH2]
> 20000 nM | 273 nM |  | CC(=O)N1CCC[C@]12CC=CCCCC1(CCCC=CCCCOC(=O)N3CC[C@@](C(=O)N[C@@H](Cc4ccccc4)C(=O)N[C@@H](Cc4csc5ccccc45)C(=O)N[C@@H](CCO)C(N)=O)(C3)NC(=O)[C@H](CCCCNC(C)C)NC(=O)[C@H](Cc3ccccc3)NC(=O)[C@H](C)NC(=O)[C@H](CCCCNC(C)C)NC(=O)[C@H](CCC(N)=O)NC(=O)[C@H](CC(=O)O)NC1=O)NC(=O)[C@H](CC1CCCCC1)NC(=O)[C@H](CC(N)=O)NC2=O (stereo partly drawn) [I-2102, Ac-PL3-Asn-Cha-B5-Asp-Gln-iPrLys-Ala-Phe-iPrLys-PyrS2-Phe-BztA-Hse-NH2]
 | 39 nM | 6400 nM | CC(=O)N1CCC[C@]12CC=CCCCC1(CCCC=CCCCOC(=O)N3CC[C@@](C(=O)N[C@@H](Cc4ccccc4C(F)(F)F)C(=O)N[C@@H](Cc4csc5cccc(Cl)c45)C(=O)N[C@@H](CCC(N)=O)C(N)=O)(C3)NC(=O)[C@H](CC(C)C)NC(=O)[C@H](Cc3ccccc3)NC(=O)[C@H](C)NC(=O)[C@H](C)NC(=O)[C@H](Cc3cccc(C(=O)O)c3)NC(=O)[C@H](CC(=O)O)NC1=O)NC(=O)[C@H](CC(C)(C)C)NC(=O)[C@H](CC(=O)O)NC2=O (stereo partly drawn) [I-2490, Ac-PL3-Asp-Npg-B5-Asp-3COOHF-Ala-Ala-Phe-Leu-PyrS2-2F3MeF-4C1BztA-Gln-NH2]
 | 34 nM | > 20000 nM | CC(=O)N1CCC[C@]12CC=CCCCC1(CCCC=CCCCOC(=O)N3CC[C@@](C(=O)N[C@@H](Cc4ccsc4)C(=O)N[C@@H](Cc4csc5ccccc45)C(=O)N[C@@H](CCC(N)=O)C(N)=O)(C3)NC(=O)[C@H](CC(C)C)NC(=O)[C@H](Cc3ccccc3)NC(=O)[C@H](C)NC(=O)[C@H](C)NC(=O)[C@H](CC(=O)O)NC(=O)[C@H](CC(=O)O)NC1=O)NC(=O)[C@H](CCCCNC(=O)C13CC4(C)CC(C)(CC(C)(C4)C1)C3)NC(=O)[C@H](CC(=O)O)NC2=O (stereo partly drawn) [I-1471, Ac-PL3-Asp-[Me3AdamantC]-Lys-B5-Asp-Asp-Ala-Ala-Phe-Leu-PyrS2-3Thi-BztA-Gln-NH2]
 | 29 nM | 16400 nM | CC(=O)N1CCC[C@]12CC=CCCCC1(CCCC=CCCCOC(=O)N3CC[C@@](C(=O)N[C@@H](Cc4ccsc4)C(=O)N[C@@H](Cc4csc5ccccc45)C(=O)N[C@H](CO)[C@@H](C)O)(C3)NC(=O)[C@H](Cc3ccccc3)NC(=O)[C@H](Cc3ccccc3)NC(=O)[C@H](C)NC(=O)[C@H](C)NC(=O)[C@H](Cc3ccccc3C(=O)O)NC(=O)[C@H](CC(=O)O)NC1=O)NC(=O)[C@H](CC(C)(C)C)NC(=O)[C@H](CC(=O)O)NC2=O (single isomer, unassigned) [I-1668, Ac-PL3-Asp-Npg-B5-Asp-2COOHF-Ala-Ala-Phe-Phe-PyrS2-3Thi-BztA-Thro1]
 | 25 nM | 29500 nM | CC(=O)N1CCC[C@]12CC=CCCCC1(CCCC=CCCCOC(=O)N3CC[C@@](C(=O)N[C@@H](Cc4ccsc4)C(=O)N[C@@H](Cc4csc5ccccc45)C(=O)N[C@@H](CCC(N)=O)C(N)=O)(C3)NC(=O)[C@H](CC(C)C)NC(=O)[C@H](Cc3ccccc3)NC(=O)[C@H](C)NC(=O)[C@H](C)NC(=O)[C@H](CNCC(=O)O)NC(=O)[C@H](CC(=O)O)NC1=O)NC(=O)[C@H](CC(C)(C)C)NC(=O)[C@H](CC(=O)O)NC2=O (stereo partly drawn) [I-1731, Ac-PL3-Asp-Npg-B5-Asp-GA-Ala-Ala-Phe-Leu-PyrS2-3Thi-BztA-Gln-NH2]
 | 84 nM | 11700 nM | CC(=O)N1CCC[C@]12CC=CCCCC1(CCCC=CCCCOC(=O)N3CC[C@@](C(=O)N[C@@H](Cc4ccccc4C(F)(F)F)C(=O)N[C@@H](Cc4ccc(Cl)cc4)C(=O)N[C@@H](CO)C(N)=O)(C3)NC(=O)[C@H](CC(C)C)NC(=O)[C@H](Cc3ccccc3)NC(=O)[C@H](C)NC(=O)[C@H](C)NC(=O)[C@H](Cc3cccc(C(=O)O)c3)NC(=O)[C@H](CC(=O)O)NC1=O)NC(=O)[C@H](CC(C)(C)C)NC(=O)[C@H](CC(=O)O)NC2=O (stereo partly drawn) [I-2222, Ac-PL3-Asp-Npg-B5-Asp-3COOHF-Ala-Ala-Phe-Leu-PyrS2-2F3MeF-4C1F-Ser-NH2]
 | 53 nM | 7800 nM | CC(=O)N1CCC[C@]12CC=CCCCC1(CCCC=CCCCOC(=O)N3CC[C@@](C(=O)N[C@@H](Cc4ccccc4C(F)(F)F)C(=O)N[C@@H](Cc4csc5ccccc45)C(=O)N[C@@H](CCC(N)=O)C(=O)N[C@@H](CC(C)C)C(=O)N[C@@H](C(N)=O)[C@H](C)O)(C3)NC(=O)[C@H](CC(C)C)NC(=O)[C@H](Cc3ccccc3)NC(=O)[C@H](C)NC(=O)[C@H](C)NC(=O)[C@H](Cc3cccc(C(=O)O)c3)NC(=O)[C@H](CC(=O)O)NC1=O)NC(=O)[C@H](CC(C)(C)C)NC(=O)[C@H](CC(=O)O)NC2=O (stereo partly drawn) [I-2397, Ac-PL3-Asp-Npg-B5-Asp-3COOHF-Ala-Ala-Phe-Leu-PyrS2-2F3MeF-BztA-Gln-Leu-dThr-NH2]
 | 310 nM | > 20000 nM | CC(=O)N1CCC[C@]12CC=CCCCC1(CCCC=CCCCOC(=O)N3CC[C@@](C(=O)N[C@@H](Cc4ccsc4)C(=O)N[C@@H](Cc4csc5ccccc45)C(=O)N[C@@H](Cc4ccc(O)cc4)C(N)=O)(C3)NC(=O)[C@H](CC(N)=O)NC(=O)[C@H](Cc3ccccc3)NC(=O)[C@H](C)NC(=O)C(C)(C)NC(=O)[C@H]([C@@H](C)O)NC(=O)[C@H](CC(N)=O)NC1=O)NC(=O)[C@H](CC(C)(C)C)NC(=O)[C@H](CC(=O)O)NC2=O (stereo partly drawn) [I-2478, Ac-PL3-Asp-Npg-B5-Asn-Thr-Aib-Ala-Phe-Asn-PyrS2-3Thi-BztA-Tyr-NH2]
